# System: IL-2 production
# Test: Inhibition of IL-2 production in PHA-activated Jurkat cells (ELISA)
# Format: cell-based
# Details: Homo sapiens, Jurkat, 20 h, PHA 2.5 μg/mL, IL-2 ELISA
# Experimental: Jurkat cells were placed in a 96 well plate (0.5 million cells per well in 1% FBS medium) then a test compound of this invention was added at different concentrations. After 10 minutes, the cells were activated with PHA (final concentration 2.5 μg/mL) and incubated for 20 hours at 37° C. under CO2. The final volume was 200 μL. Following incubation, the cells were centrifuged and the supernatants collected and stored at −70° C. prior to assaying for IL-2 production. A commercial ELISA kit (IL-2 Eli-pair, Diaclone Research, Besancon, France) was used to detect production of IL-2, from which dose response curves were obtained.
smiles,measurement,value
"Cc1nc(NC(=O)c2cccnc2F)sc1-c1cccc(C(F)(F)F)c1 [Compound 50, 2-Fluoro-N-(4-methyl-5-(3-(trifluoromethyl)phenyl)thiazol-2-yl)nicotinamide]",IC50,200 to 500 nM
"Cc1nc(NC(=O)c2c(F)cccc2F)sc1-c1cc(C#N)c2c(c1)OCO2 [Compound 58, N-(5-(7-Cyanobenzo[d][1,3]dioxol-5-yl)-4-methylthiazol-2-yl)-2,6-difluorobenzamide]",IC50,200 to 500 nM
"CN(C)c1ccc(-c2nc(NC(=O)c3c(F)cccc3F)sc2-c2cccc(C(F)(F)F)c2)cc1 [Compound 110, N-(4-(4-(Dimethylamino)phenyl)-5-(3-(trifluoromethyl)phenyl)thiazol-2-yl)-2,6-difluorobenzamide]",IC50,> 1000 nM
"COC(=O)c1cccc(-c2sc(C(=O)Nc3c(F)cccc3F)nc2C)c1 [Compound 117, methyl 3-(2-(2,6-difluorophenylcarbamoyl)-4-methylthiazol-5-yl)benzoate]",IC50,100 to 200 nM
"O=C(Nc1c(F)cccc1F)c1cnc(-c2cc(-c3nccs3)ccc2Cl)s1 [Compound 125, 2-(2-chloro-5-(thiazol-2-yl)phenyl)-N-(2,6-difluorophenyl)thiazole-5-carboxamide]",IC50,200 to 500 nM
"CC(C)(O)c1nc(NC(=O)c2c(F)cccc2F)sc1-c1cccc(C(F)(F)F)c1 [Compound 68, 2,6-Difluoro-N-(4-(2-hydroxypropan-2-yl)-5-(3-(trifluoromethyl)phenyl)thiazol-2-yl)benzamide]",IC50,> 1000 nM
"Nc1nc(-c2nc(NC(=O)c3c(F)cccc3F)sc2-c2cccc(C(F)(F)F)c2)cs1 [Compound 87, N-(2′-amino-5-(3-(trifluoromethyl)phenyl)-4,4′-bithiazol-2-yl)-2,6-difluorobenzamide]",IC50,> 1000 nM
"CC(C)c1nc(NC(=O)c2c(F)cccc2F)sc1-c1cccc(C(F)(F)F)c1 [Compound 69, 2,6-Difluoro-N-(4-isopropyl-5-(3-(trifluoromethyl)phenyl)thiazol-2-yl)benzamide]",IC50,200 to 500 nM
"COC(=O)c1cccc(-c2sc(NC(=O)c3c(F)cccc3F)nc2C(=O)OC)c1 [Compound 114, Methyl 2-(2,6-difluorobenzamido)-5-(3-(methoxycarbonyl)phenyl)thiazole-4-carboxylate]",IC50,> 1000 nM
"Cc1cnccc1NC(=O)c1nc(C)c(-c2cccc(C(F)(F)F)c2)s1 [Compound 120, 4-methyl-N-(3-methylpyridin-4-yl)-5-(3-(trifluoromethyl)phenyl)thiazole-2-carboxamide]",IC50,> 1000 nM
"CCOC(CNC(=O)c1nc(NC(=O)c2c(F)cccc2F)sc1-c1cccc(C(F)(F)F)c1)OCC [Compound 98, N-(2,2-diethoxyethyl)-2-(2,6-difluorobenzamido)-5-(3-(trifluoromethyl)phenyl)thiazole-4-carboxamide]",IC50,> 1000 nM
"Cc1ncccc1C(=O)Nc1nc(C)c(-c2cccc(C(F)(F)F)c2)s1 [Compound 51, 2-Methyl-N-(4-methyl-5-(3-(trifluoromethyl)phenyl)thiazol-2-yl)nicotinamide]",IC50,> 1000 nM
"CCC(=O)c1nc(NC(=O)c2c(F)cccc2F)sc1-c1cccc(C(F)(F)F)c1 [Compound 94, 2,6-difluoro-N-(4-propionyl-5-(3-(trifluoromethyl)phenyl)thiazol-2-yl)benzamide]",IC50,50 to 100 nM
"O=C(Nc1nc(CCl)c(-c2cccc(C(F)(F)F)c2)s1)c1c(F)cccc1F [Compound 70, N-(4-(Chloromethyl)-5-(3-(trifluoromethyl)phenyl)thiazol-2-yl)-2,6-difluorobenzamide]",IC50,> 1000 nM
"Cc1cnccc1C(=O)Nc1nc(C2CC2)c(-c2cccc(C(F)(F)F)c2)s1 [Compound 53, N-(4-cyclopropyl-5-(3-(trifluoromethyl)phenyl)thiazol-2-yl)-3-methylisonicotinamide]",IC50,50 to 100 nM
"O=C(Nc1nc(-c2ncco2)c(-c2cccc(C(F)(F)F)c2)s1)c1c(F)cccc1F [Compound 91, 2,6-difluoro-N-(4-(oxazol-2-yl)-5-(3-(trifluoromethyl)phenyl)thiazol-2-yl)benzamide]",IC50,50 to 100 nM

# Reference: patent US8455658B2, “Thiazole and thiadiazole compounds for inflammation and immune-related uses” (Synta Pharmaceuticals Corp., priority 2006, dated 2013)
